Experimental data: paper PMC8121067 (Journal of Cell Science, 2021)
“And” between values parts separate entries of the source, which are not always exact repeats. Equal entries are not always repeated. “Also recorded” adds a separate entry of the source. Marks after values point to notes of the source that are not given here.

How the values were obtained:
REF52 fibroblast = experiment: traction force microscopy in living cells; format: cell-based, rat; conditions: 30 μM, within 10 min
Description: Traction force microscopy with embedded beads was performed as described previously ([Rafiq et al., 2019]). Briefly, soft polydimethylsiloxanes CY 52-276A and CY 52-276B (Dow Corning, 0008602722) were mixed at the ratio 1:1 and Sylgard 184 crosslinker was used to tune the stiffness of the gel for proper force measurement of cells (∼95 kPa). The mixture was spin-coated onto a clean coverslip to achieve the thickness of ∼7 μm and cured for 1 h at 80°C. The surface of the gel was silanized with (3-aminopropyl)triethoxysilane for 2 h, followed by incubation of 0.04 μm FluoSpheres carboxylate-modified microspheres, dark red fluorescent (660/680) beads (Thermo Fisher Scientific, 1871942) at 1×10^6 beads/ml in a solution of 0.1 M NaHCO3 for 30 min. Before seeding the cells, the coverslips with beads were further incubated for 30 min with 10 μg/ml fibronectin, also dissolved in 0.1 M NaHCO3. Traction forces were calculated from bead displacement fields visualized by using live cell imaging as described by [Tseng et al. (2012)], and using the online ImageJ plugin (https://sites.google.com/site/qingzongtseng/tfm for plugin software details). The computation algorithm as published by [Sabass et al. (2008)] was used. The distribution of traction force magnitude was presented as a heat map (Fig. 1A), and mean magnitude values were calculated for each cell.

[1] = system: permeabilized REF52 cells; experiment: ATP-dependent ventral stress fiber retraction in Triton X-100-permeabilized cells; format: cell-based, rat
Description: Detergent treatment leads to depletion of all soluble factors from the cells and, in particular, of ATP. Supplementing the medium with ATP induces the myosin 2-dependent contraction of stress fibers. […] We locally photoconverted spots along the length of ventral stress fibers, and tracked both retraction of the unconverted stress fiber ends and longitudinal movements of the photoconverted actin spots after adding ATP into the solution (Fig. 1C, left panel).
For stress fiber imaging, REF52 cells were transfected with mEos3.2-Actin expression plasmid and seeded onto a 35 mm glass bottom dish (Iwaki, 3930-035) 24 h prior to the assay.
The protocol of the cell permeabilization and cytoskeleton contractility assay has been described previously ([Tee and Bershadsky, 2016]; [Tee et al., 2015]). […] All drug remained in the buffer during the entire period of observation.

HFF cells = experiment: centripetal movement of myosin 2 filaments at transverse arcs in living cells (PIV); format: cell-based, human; conditions: treated 45 min, 12.5, 25 or 50 μM
Text: (§1) We also tested inhibition of contraction of another type of contractile actomyosin structure, i.e. of the transverse arcs formed by periodically arranged myosin and actin filaments in fibroblasts ([Hu et al., 2017]). We measured the velocity of movement of transverse arcs in human foreskin fibroblast (HFF) cells plated on a circular fibronectin island ([Tee et al., 2015]). In control cells, filaments of non-muscle myosin 2 were visualized by expression of GFP-tagged myosin regulatory light chain (GFP-MRLC) localized to the transverse arcs and moved towards the cell center with an average velocity of 0.152 μm/min, as determined by particle image velocimetry (PIV) (Fig. 2A) ([Hu et al., 2017)]. […] Permeabilization of the same cells by using Triton X-100 removed G-actin and ATP. […]
(§2) Particle Image Velocimetry (PIV) analysis was used to measure average instantaneous speed of filaments of non-muscle myosin 2 visualized by expression of GFP-MRLC. […] To quantify the retraction speed of stress fiber ends, we manually selected all ends labeled by unconverted mEOS3.2-actin and arranged them into kymographs for every cell. The retraction speed for each end during imaging was calculated manually using the kymograph. The average retraction speed of stress fibers was calculated for each cell and plotted.

permeabilized HFF cells = experiment: ATP-induced centripetal movement of myosin 2 filaments in permeabilized cells (PIV); format: cell-based, human; conditions: 50 μM
Text: as §1, §2

[2] = molecular target: T1, human non-muscle myosin 2A (Homo sapiens, UniProt P35579); experiment: actin-activated ATPase assay (NADH-linked); format: biochemical; conditions: phosphorylated by MLCK; 10 µM actin, 25°C; approximate; read-out: IC50, actin-activated MgATPase activity
T1 construct: A heavy meromyosin (HMM)-like fragment of human non-muscle myosin 2A; made in house; host or cells: Sf9 insect cells (baculovirus co-infection)
Description: (§3) Two methods are primarily used to assess actomyosin function in vitro. […] In the absence of actin, myosins have very low basal ATPase rates that are activated 10–1000-fold by the addition of actin ([De La Cruz and Ostap, 2009]).
(§4) A heavy meromyosin (HMM)-like fragment of human non-muscle myosin 2A was prepared by expression in Sf9 insect cells as described ([Kengyel et al., 2010]). Cells were co-infected with a virus driving the expression of the truncated myosin heavy chain as well as one driving the expression of regulatory and essential light chains. The myosin was phosphorylated through smooth muscle myosin light chain kinase (MLCK) prior to use ([Nagy et al., 2013]). Full-length Drosophila myosin 5 ([Lu et al., 2020]), Drosophila myosin 7a ([Yang et al., 2009]) and a forced dimeric HMM-like fragment of bovine myosin 10 ([Takagi et al., 2014]) were also produced in Sf9 cells. Drosophila myosin 5 was co-expressed with Drosophila ELC and calmodulin, whereas the HMM-like fragment of myosin 10 was co-expressed with calmodulin. Skeletal muscle HMM was produced by chymotrypic digestion of full-length rabbit fast skeletal muscle myosin ([Margossian and Lowey, 1982]). […]
(§5) Actin-activated ATPase assays were carried out using an NADH-linked assay in a Cary 50 spectrophotometer as previously described ([Heissler et al., 2015]). […] Absorbance was monitored at 340 nm. […]

[3] = molecular target: rabbit skeletal muscle myosin 2; experiment: actin-activated ATPase assay (NADH-linked); format: biochemical; conditions: tissue purified, mixed isoforms; approximate
Description: as §3, §4, §5

MLCK = MLCK (Homo sapiens, UniProt Q15746); experiment: myosin light chain kinase phosphorylation of non-muscle myosin 2A (HPLC-mass spectrometry); format: biochemical; conditions: 100 μM
[4] = system: rabbit skeletal muscle myosin 2 HMM; experiment: gliding actin in vitro motility assay; format: biochemical
Text: Here, skeletal muscle myosin 2 HMM is bound to a nitrocellulose-coated coverslip and its ability to translocate Rhodamine–phalloidin-labeled actin filaments observed (Table 1). […] The lack of reversibility could be due to covalent modification of myosin by SMIFH2. […] A higher drug concentration was required to achieve ∼50% of the gliding velocity than was required for similar inhibition of the actin-activated ATPase. This was also observed when blebbistatin was used to inhibit actin gliding ([Limouze et al., 2004]; [Sakamoto et al., 2005]).
The gliding actin in vitro motility assay was conducted at 30°C in 50 mM KCl, 4 mM MgCl2, 0.1 mM EGTA, 30 mM MOPS pH 7.2, 0.5% methylcellulose, 1 mM ATP, using an oxygen-savaging system consisting of 2.5 μg/ml glucose oxidase, 45 μg/ml catalase, 2.5 mg/ml glucose and […] DTT ([Sellers et al., 1993]). The rate of movement of actin filaments was determined as described previously ([Homsher et al., 1992]).

Drosophila myosin 5 = Drosophila myosin 5 (Drosophila melanogaster, UniProt A1Z6Z9); experiment: actin-activated ATPase assay (NADH-linked); format: biochemical; conditions: approximate
Text: (§6) There are 40 myosin heavy chain genes from twelve classes in the human genome ([Berg et al., 2001]). Many, but not all of these myosins are present in other metazoan species including Drosophila ([Yamashita et al., 2000]). Although all of these myosins contain a conserved motor domain, the tail portions are very diverse, allowing the myosins to perform a plethora of cellular functions. […] The assays regarding bovine myosin 10 are particularly interesting since this myosin plays a role in filopodia initiation and formation in mammalian cells ([Kerber and Cheney, 2011]), a process that also involves formin action.
(§7) A heavy meromyosin (HMM)-like fragment of human non-muscle myosin 2A was prepared by expression in Sf9 insect cells as described ([Kengyel et al., 2010]). Cells were co-infected with a virus driving the expression of the truncated myosin heavy chain as well as one driving the expression of regulatory and essential light chains. The myosin was phosphorylated through smooth muscle myosin light chain kinase (MLCK) prior to use ([Nagy et al., 2013]). Full-length Drosophila myosin 5 ([Lu et al., 2020]), Drosophila myosin 7a ([Yang et al., 2009]) and a forced dimeric HMM-like fragment of bovine myosin 10 ([Takagi et al., 2014]) were also produced in Sf9 cells. Drosophila myosin 5 was co-expressed with Drosophila ELC and calmodulin, whereas the HMM-like fragment of myosin 10 was co-expressed with calmodulin. Skeletal muscle HMM was produced by chymotrypic digestion of full-length rabbit fast skeletal muscle myosin ([Margossian and Lowey, 1982]). Rabbit skeletal muscle actin was prepared as previously described ([Lehrer and Kerwar, 1972]).
(§8) Actin-activated ATPase assays were carried out using an NADH-linked assay in a Cary 50 spectrophotometer as previously described ([Heissler et al., 2015]). […] The final amount of DMSO added to the samples was 2%. The assay conditions were 10 µM actin, 50 mM KCl, 10 mM MOPS, 2 mM MgCl2, 0.1 mM EGTA, 1 mM ATP, 10 mM MOPS pH 7.0 at 25°C. […] Absorbance was monitored at 340 nm.

Drosophila myosin 7a = molecular target: T2, Drosophila myosin 7a (Drosophila melanogaster, UniProt Q9V3Z6); experiment: actin-activated ATPase assay (NADH-linked); format: biochemical; conditions: approximate
T2 construct: made in house; host or cells: Sf9 cells
Text: as §6, §7, §8

bovine myosin 10 = molecular target: T3, bovine myosin 10 (Bos taurus, UniProt P79114); experiment: actin-activated ATPase assay (NADH-linked); format: biochemical; conditions: approximate
T3 construct: a forced dimeric HMM-like fragment of bovine myosin 10; dimerisation element (forced dimer); made in house; host or cells: Sf9 cells
Text: as §6, §7, §8

mDia1 = system: mDia1; design: method as in Rizvi et al., 2009; conditions: actin assembly in the presence of profilin in vitro; ref Rizvi et al., 2009; read-out: Half-maximal inhibition of mDia1; cited from earlier work
[5] = system: Formins: CYK-1, Cdc12 and Fus1, Bn1, mDia2; design: method as in Rizvi et al., 2009; conditions: CYK-1, Cdc12, Fus1, Bn1, mDia2; ref Rizvi et al., 2009; read-out: IC50 values for formins from a variety of species; cited from earlier work
pure actin = system: pure actin; design: method as in Rizvi et al., 2009; conditions: ref Rizvi et al., 2009; cited from earlier work

T1 sequence (P35579 1-1337 limits assumed): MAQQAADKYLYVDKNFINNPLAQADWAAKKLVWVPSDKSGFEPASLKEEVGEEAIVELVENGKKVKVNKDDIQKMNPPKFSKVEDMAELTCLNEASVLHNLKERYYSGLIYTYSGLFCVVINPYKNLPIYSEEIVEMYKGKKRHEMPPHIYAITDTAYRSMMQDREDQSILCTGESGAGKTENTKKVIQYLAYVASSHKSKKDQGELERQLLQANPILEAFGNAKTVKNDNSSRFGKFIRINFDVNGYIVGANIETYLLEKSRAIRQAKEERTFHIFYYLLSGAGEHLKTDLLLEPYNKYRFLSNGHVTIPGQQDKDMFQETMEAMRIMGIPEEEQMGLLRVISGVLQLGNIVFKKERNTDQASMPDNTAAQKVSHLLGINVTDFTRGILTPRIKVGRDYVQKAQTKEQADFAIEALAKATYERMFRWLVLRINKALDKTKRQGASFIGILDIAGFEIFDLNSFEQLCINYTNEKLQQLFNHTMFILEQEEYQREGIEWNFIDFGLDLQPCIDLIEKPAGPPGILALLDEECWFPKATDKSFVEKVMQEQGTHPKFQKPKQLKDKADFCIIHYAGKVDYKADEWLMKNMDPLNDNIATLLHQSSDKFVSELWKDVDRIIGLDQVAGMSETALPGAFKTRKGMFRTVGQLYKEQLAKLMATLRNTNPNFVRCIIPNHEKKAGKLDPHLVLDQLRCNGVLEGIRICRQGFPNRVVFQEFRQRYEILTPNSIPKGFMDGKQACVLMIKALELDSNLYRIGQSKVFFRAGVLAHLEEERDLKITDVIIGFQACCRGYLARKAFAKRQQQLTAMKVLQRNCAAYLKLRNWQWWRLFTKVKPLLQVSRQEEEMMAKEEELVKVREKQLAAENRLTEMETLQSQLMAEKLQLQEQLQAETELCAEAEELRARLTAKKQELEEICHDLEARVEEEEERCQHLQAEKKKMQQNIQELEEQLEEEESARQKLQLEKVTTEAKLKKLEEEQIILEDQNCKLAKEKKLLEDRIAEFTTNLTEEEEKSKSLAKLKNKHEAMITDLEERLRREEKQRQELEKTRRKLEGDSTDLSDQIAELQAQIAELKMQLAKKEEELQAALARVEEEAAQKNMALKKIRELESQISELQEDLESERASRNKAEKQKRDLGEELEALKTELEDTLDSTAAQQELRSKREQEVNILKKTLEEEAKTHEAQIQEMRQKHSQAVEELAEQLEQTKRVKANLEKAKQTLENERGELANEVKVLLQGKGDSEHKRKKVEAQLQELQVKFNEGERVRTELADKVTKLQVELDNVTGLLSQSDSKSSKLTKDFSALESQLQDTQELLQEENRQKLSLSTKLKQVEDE
T1 sequence (O14950 2-172 partner limits assumed): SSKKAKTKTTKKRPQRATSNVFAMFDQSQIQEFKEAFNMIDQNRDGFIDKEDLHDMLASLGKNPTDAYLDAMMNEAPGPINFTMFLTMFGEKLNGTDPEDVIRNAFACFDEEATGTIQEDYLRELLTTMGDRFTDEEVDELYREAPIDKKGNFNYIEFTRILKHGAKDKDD
T1 sequence (P60660 2-151 partner limits assumed): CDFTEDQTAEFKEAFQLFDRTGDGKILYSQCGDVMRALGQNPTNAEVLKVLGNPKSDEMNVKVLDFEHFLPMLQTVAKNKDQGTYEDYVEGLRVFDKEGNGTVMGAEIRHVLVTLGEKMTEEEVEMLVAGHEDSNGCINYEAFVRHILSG
T3 sequence (P79114 other isoform, or with tags, fused parts or gaps): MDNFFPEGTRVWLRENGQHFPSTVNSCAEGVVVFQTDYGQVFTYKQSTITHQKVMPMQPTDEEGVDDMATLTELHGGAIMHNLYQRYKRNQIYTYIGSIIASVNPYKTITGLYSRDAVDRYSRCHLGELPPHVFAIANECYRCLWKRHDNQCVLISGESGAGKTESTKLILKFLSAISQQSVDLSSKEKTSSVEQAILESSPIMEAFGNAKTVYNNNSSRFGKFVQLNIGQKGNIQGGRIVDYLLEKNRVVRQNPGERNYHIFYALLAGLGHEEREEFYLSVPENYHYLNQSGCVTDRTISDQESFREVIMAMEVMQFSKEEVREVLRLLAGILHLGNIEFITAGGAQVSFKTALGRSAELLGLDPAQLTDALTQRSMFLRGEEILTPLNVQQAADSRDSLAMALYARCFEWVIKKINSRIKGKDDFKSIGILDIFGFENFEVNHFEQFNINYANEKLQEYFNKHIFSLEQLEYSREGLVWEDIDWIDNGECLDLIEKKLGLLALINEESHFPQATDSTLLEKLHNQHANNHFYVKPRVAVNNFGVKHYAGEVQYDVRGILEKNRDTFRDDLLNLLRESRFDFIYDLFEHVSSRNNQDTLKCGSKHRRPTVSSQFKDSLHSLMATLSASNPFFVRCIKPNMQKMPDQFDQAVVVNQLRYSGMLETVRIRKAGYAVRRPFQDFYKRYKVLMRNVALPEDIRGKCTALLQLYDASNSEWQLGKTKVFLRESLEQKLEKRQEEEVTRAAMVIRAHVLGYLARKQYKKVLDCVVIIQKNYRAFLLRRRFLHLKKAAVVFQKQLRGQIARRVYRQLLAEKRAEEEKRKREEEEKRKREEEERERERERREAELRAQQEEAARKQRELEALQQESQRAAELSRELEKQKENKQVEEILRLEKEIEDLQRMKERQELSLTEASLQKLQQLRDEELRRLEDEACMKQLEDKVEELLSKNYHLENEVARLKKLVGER
Chain of MLCK (Q15746 923-1914): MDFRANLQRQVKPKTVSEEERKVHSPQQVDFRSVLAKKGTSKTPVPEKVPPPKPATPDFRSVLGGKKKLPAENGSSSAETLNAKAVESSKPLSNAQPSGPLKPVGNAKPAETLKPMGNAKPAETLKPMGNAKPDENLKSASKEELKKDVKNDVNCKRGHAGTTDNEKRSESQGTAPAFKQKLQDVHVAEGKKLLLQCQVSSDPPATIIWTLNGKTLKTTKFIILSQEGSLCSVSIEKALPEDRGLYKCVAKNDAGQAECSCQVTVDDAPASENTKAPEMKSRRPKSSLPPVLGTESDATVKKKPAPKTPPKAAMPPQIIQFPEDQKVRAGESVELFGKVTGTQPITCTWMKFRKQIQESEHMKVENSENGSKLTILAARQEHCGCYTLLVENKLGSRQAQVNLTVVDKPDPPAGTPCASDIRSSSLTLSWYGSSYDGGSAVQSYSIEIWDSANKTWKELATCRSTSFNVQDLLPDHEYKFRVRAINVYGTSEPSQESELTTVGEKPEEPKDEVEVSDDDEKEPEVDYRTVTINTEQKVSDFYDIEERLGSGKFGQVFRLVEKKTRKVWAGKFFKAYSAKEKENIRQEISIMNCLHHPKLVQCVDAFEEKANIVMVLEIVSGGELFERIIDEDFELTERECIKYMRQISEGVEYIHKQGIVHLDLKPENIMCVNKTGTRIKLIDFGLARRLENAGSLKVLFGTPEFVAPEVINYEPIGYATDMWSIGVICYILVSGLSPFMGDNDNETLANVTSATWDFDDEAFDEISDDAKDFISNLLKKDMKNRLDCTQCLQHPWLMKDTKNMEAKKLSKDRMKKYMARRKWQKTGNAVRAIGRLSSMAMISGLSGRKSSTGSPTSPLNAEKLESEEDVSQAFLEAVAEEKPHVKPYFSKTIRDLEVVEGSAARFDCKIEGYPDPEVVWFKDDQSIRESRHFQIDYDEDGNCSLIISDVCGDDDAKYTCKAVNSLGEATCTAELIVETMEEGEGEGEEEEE

Row | Structure (SMILES) | effect on traction forces exerted by cells (REF52 fibroblast) | inhibition of ATP-induced retraction of stress fiber ends (contractility) ([1]; >100 μM SMIFH2) | inhibition of ATP-induced retraction of stress fiber ends ([1]; ∼50μM SMIFH2) | velocity of centripetal movement of transverse arcs (myosin 2 filaments) (HFF cells) | ATP-induced centripetal movement of myosin 2 filaments (permeabilized HFF cells) | IC50 [2] | IC50 [3] | inhibition of MLCK activity (MLCK) | Velocity of actin filaments ([4]; 50 μM SMIFH2) | Velocity of actin filaments ([4]; 100 μM SMIFH2) | Velocity of actin filaments ([4]; 150 μM SMIFH2) | Velocity of actin filaments ([4]; 150 μM SMIFH2 followed by washout) | Velocity of actin filaments ([4]; 200 μM SMIFH2) | IC50 (Drosophila myosin 5) | IC50 (Drosophila myosin 7a) | IC50 (bovine myosin 10) | IC50 (mDia1) | IC50 [5] | effect on assembly of pure actin (pure actin) | inhibition of ATP-induced retraction of stress fiber ends (contractility) ([1]; 100 μM pAB)
1 | O=C1NC(=S)N(c2cccc(Br)c2)C(=O)C1=Cc1ccco1 [SMIFH2] | inhibition of traction forces | complete inhibition | ~50% | decreased in dose-dependent manner | blocked centripetal movement | 50 µM and ~50 µM | ~40 µM | no effect; also recorded: did not inhibit | 4.1* μm/s | 4.1* μm/s | completely abolished; also recorded: No movement | could not be reversed; also recorded: No movement | No movement | 2 µM and ~2 µM | 30 µM and ~30 µM | 15 µM and ~15 µM | ~15 µM | 5 to 15 µM | did not affect | –
2 | Cc1ccc2c(c1)C(=O)[C@]1(O)CCN(c3ccc(N)cc3)C1=N2 [pAB, para-aminoblebbistatin] | – | – | – | – | – | – | – | – | – | – | – | – | – | – | – | – | – | – | – | complete inhibition
